Source: patent US9650382B2, “Heteroarylamide derivatives having antiandrogenic properties” (MEDEIA THERAPEUTICS LTD, priority 2012, dated 2017)
Substitutions are numbered along the chain they refer to.

How the values were obtained:
Assay type in all cases: cell-based
WT AR = molecular target: T1, WT AR (Homo sapiens, UniProt P10275); assay: Antagonism in WT AR, AR transactivation reporter gene assay (COS-1 cells, or INDIGO Human AR Reporter Assay System), competitive setting with reference agonist; settings: for Relative LUC activity (%) indicating residual androgen activity in relation to reference agonist (100%): competitive setting with reference agonist (50 nM testosterone or 400 pM FIT); for activity at 1 µM / activity at 10 µM: COS-1, read-out: Relative LUC activity (%) indicating residual androgen activity in relation to reference agonist (100%)
T1 construct: expressed in transfected cells; host or cells: COS-1 cells (transient transfection); alternatively non-human mammalian cells of the INDIGO Biosciences Human AR Reporter Assay System
T1 sequence (P10275 1-920): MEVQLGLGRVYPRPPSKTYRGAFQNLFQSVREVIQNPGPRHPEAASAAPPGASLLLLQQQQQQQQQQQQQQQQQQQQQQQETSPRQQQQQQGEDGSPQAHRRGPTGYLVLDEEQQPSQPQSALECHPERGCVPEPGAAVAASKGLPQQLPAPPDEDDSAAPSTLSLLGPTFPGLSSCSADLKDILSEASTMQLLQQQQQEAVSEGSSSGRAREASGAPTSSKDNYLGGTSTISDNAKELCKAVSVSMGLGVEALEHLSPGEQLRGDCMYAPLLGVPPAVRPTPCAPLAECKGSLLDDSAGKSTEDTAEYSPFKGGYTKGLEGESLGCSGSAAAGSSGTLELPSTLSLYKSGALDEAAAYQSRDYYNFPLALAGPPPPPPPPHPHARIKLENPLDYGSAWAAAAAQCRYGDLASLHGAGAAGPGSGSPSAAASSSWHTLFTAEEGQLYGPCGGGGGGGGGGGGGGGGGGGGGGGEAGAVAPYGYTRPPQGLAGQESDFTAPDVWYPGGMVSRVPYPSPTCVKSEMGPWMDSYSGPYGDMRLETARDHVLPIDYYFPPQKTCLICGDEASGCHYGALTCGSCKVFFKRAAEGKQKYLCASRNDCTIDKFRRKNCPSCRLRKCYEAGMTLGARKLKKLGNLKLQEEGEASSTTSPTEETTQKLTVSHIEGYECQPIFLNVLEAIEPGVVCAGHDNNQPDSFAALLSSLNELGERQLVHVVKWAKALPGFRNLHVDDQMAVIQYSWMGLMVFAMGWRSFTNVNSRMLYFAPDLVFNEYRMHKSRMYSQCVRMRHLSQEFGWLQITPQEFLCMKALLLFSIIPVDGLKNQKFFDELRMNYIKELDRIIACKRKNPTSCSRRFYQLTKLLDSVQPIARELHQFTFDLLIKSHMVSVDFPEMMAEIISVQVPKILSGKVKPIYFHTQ
Protocol: After 18 h, reporter gene activities (LUC and beta-galactosidase) were determined according to standard methods. The data are expressed as relative LUC activity (luciferase light units divided by beta-galactosidase A420nm to control for transfection efficiency) of a given compound in relation to the activity of a reference test item (=100%).
Alternatively, commercial Human AR Reporter Assay System (INDIGO Biosciences) was used. In this assay, non-human mammalian cells are engineered to express human WT AR together with LUC reporter gene linked to AR-responsive promoter. 400 pM 6-alpha-FI testosterone, FIT, was used as a reference agonist in a competitive setting.
Antagonism in WT AR of compounds of the present invention was measured in AR transactivation assay in COS-1 cells in competitive setting using testosterone as a reference agonist as described above. Alternatively INDIGO Bioscience's Human AR Reporter Assay System was utilized. […] Relative LUC activity representing AR-dependent transcription obtained by exposure to reference agonist alone was set to 100%.

W741L AR = molecular target: T2, W741L AR (Homo sapiens, UniProt P10275, W742L); assay: Agonism in W741L mutant AR, AR transactivation assay in COS-1 cells, test compounds alone; settings: 10 microM; compound alone
T2 construct: expressed in transfected cells; host or cells: COS-1 cells
T2 sequence (P10275 1-920 W742L): T1 sequence (P10275 1-920) with W742L
Protocol: (§1) COS-1 cells (American Type Culture Collection, ATCC) were cultured in Dulbecco's Modified Eagle Medium (DMEM) supplemented with 10% fetal bovine serum (FBS), penicillin (6.25 U/ml) and streptomycin (6.25 μg/ml) and seeded onto 48-well plates (50 000 cells/well) one day before transfection. Transfection media containing 2.5% charcoal-stripped FBS in DMEM was changed on cells 4 h prior to transfection. Cells were transfected with 50 ng of luciferase (LUC) reporter gene plasmid (pPB-286/+32-LUC; PB, probasin promoter), 5 ng of AR expression plasmid (pSG5-hAR), and 5 ng of pCMVβ (an internal, beta-galactosidase control for transfection efficiency and cell growth) using TransIT-LT1 reagent (Mirus Bio Corporation) according to the manufacturer's instructions. […] After 18 h, reporter gene activities (LUC and beta-galactosidase) were determined according to standard methods. The data are expressed as relative LUC activity (luciferase light units divided by beta-galactosidase A420nm to control for transfection efficiency) of a given compound in relation to the activity of a reference test item (=100%).
(§2) Agonism in W741L AR of compounds of the present invention was measured in AR transactivation assay in COS-1 cells as described above except that AR expression vector harboring the W741L mutation was used instead of the WT AR. The transfected cells were exposed to test compounds alone.

T877A AR = molecular target: T3, T877A AR (Homo sapiens, UniProt P10275, T878A); assay: Agonism in T877A mutant AR, AR transactivation assay in COS-1 cells, test compounds alone; settings: 10 microM; compound alone
T3 construct: expressed in transfected cells; host or cells: COS-1 cells
T3 sequence (P10275 1-920 T878A): T1 sequence (P10275 1-920) with T878A
Protocol: as §1
as §2, with “T877A” for “W741L”, “used.” for “used instead of the WT AR.”, “alone. Testosterone was used as reference agonist, and its' relative LUC activity representing AR-dependent transcription was set to 100%.” for “alone.”

SMILES	Relative LUC activity (%) indicating residual androgen activity in relation to reference agonist (100%) (WT AR; 1 microM compound) [%]	Relative LUC activity (%) indicating residual androgen activity in relation to reference agonist (100%) (WT AR; 10 microM compound) [%]	Relative LUC activity (%) in W741L AR in relation to BIC (100%) (W741L AR) [%]	Relative LUC activity (%) in T877A AR in relation to testosterone (100%) (T877A AR) [%]	activity at 1 µM (WT AR) [%]	activity at 10 µM (WT AR) [%]
N#Cc1ccc(NC(=O)C(O)(CS(=O)(=O)c2ccc(Cl)cc2)c2ccc(Cl)nc2)cc1Cl (stereo not shown) [Example 9, N-(3-chloro-4-cyanophenyl)-3-[(4-chlorobenzene)sulfonyl]-2-(6-chloropyridin-3-yl)-2-hydroxypropanamide]	25	13	23	3		
N#Cc1ccc(NC(=O)C(O)(CS(=O)(=O)c2ccc(F)cc2)c2ccc(C(F)(F)F)nc2)cc1Cl (stereo not shown) [Example 15, N-(3-chloro-4-cyanophenyl)-3-(4-fluorobenzenesulfonyl)-2-hydroxy-2-[6-(trifluoromethyl)pyridin-3-yl]propanamide]					25	3
CCS(=O)(=O)CC(O)(C(=O)Nc1ccc(C#N)c(C(F)(F)F)c1)c1ccc(Cl)nc1 (stereo not shown) [Example 1, 2-(6-chloropyridin-3-yl)-N-[4-cyano-3-(trifluoromethyl)phenyl]-3-(ethanesulfonyl)-2-hydroxypropanamide]			6	13	37	8
N#Cc1ccc(NC(=O)C(O)(CS(=O)(=O)Cc2ccc(Cl)cc2)c2ccc(Cl)nc2)cc1Cl (stereo not shown) [Example 8, N-(3-chloro-4-cyanophenyl)-3-{[(4-chlorophenyl)methane]sulfonyl}-2-(6-chloropyridin-3-yl)-2-hydroxypropanamide]	32	4	4	2		
CC(C)CCS(=O)(=O)CC(O)(C(=O)Nc1ccc(C#N)c(C(F)(F)F)c1)c1ccc(Cl)nc1 (stereo not shown) [Example 6, 2-(6-chloropyridin-3-yl)-N-[4-cyano-3-(trifluoromethyl)phenyl]-2-hydroxy-3-[(3-methylbutane)sulfonyl]propanamide]	28	7	31	4		
CC(C)S(=O)(=O)CC(O)(C(=O)Nc1ccc(C#N)c(C(F)(F)F)c1)c1ccc(Cl)nc1 (stereo not shown) [Example 12, 2-(6-chloropyridin-3-yl)-N-[4-cyano-3-(trifluoromethyl)phenyl]-2-hydroxy-3-(propane-2-sulfonyl)propanamide]			3	4	30	5
